Results taken from patent US12473291B2 (priority 2019, dated 2025).

Key:
KM mice = experiment: animal or person; assay type: in vivo; settings: for 2ED50 duration / 2ED50 recovery time / Quality of recovery: KM mice; for 2ED50 duration / 2ED50 recovery time: single tail vein injection at 2×ED50; for 2ED50 duration: time from disappearance to recovery of righting reflex; for 2ED50 recovery time: time from recovery of righting reflex to free crawling; for Quality of recovery: tail vein injection; for ED50: Mus musculus, KM mice (male, 18-22 g), injection via the tail vein, disappearance of righting reflex, read-out: ED50
SD rats = experiment: animal or person; assay type: in vivo; settings: for ED50: Rattus norvegicus, SD rats (male, 220-300 g), injection via the tail vein, disappearance of righting reflex, read-out: ED50; for 2ED50 duration / 2ED50 recovery time / Quality of recovery: SD rats; for 2ED50 duration / 2ED50 recovery time: single tail vein injection at 2×ED50; for 2ED50 duration: time from disappearance to recovery of righting reflex; for 2ED50 recovery time: time from recovery of righting reflex to free crawling; for Quality of recovery: tail vein injection

Question: For COC(=O)OCOC(=O)CC[C@@H]1N=C(c2ccccn2)c2cc(Br)c(Br)cc2-n2c(C)cnc21 [Example 8], which 2ED50 duration (KM mice) is on record?
Answer: The 2ED50 duration was 5.23 min.

Question: What about the 2ED50 recovery time (KM mice) of the same molecule?
Answer: Its 2ED50 recovery time is 2.18 min.

Question: And the Quality of recovery (KM mice)?
Answer: Its Quality of recovery is “+++ (“+++” means 3-5 min)”.

Question: And the ED50 (KM mice)?
Answer: Its ED50 is 27.5 mg/kg.

Question: And the ED50 (SD rats)?
Answer: Its ED50 is 5.8 mg/kg.

Question: What about the “2ED50 duration” value (SD rats) of the same molecule?
Answer: The value was 5.05 min.

Question: And the 2ED50 recovery time (SD rats)?
Answer: The 2ED50 recovery time was 2.18 min.

Question: What about the Quality of recovery (SD rats) of the same molecule?
Answer: The Quality of recovery was “++++ (“++++” means 5-10 min)”.

Question: With CCOC(=O)OCOC(=O)CC[C@@H]1N=C(c2ccccn2)c2cc(Br)c(Br)cc2-n2c(C)cnc21 [Example 9] as the molecule, how does the 2ED50 duration (KM mice) read?
Answer: Its 2ED50 duration is 5.48 min.

Question: What about the 2ED50 recovery time (KM mice) of the same molecule?
Answer: Its 2ED50 recovery time is 2.07 min.

Question: And the Quality of recovery (KM mice)?
Answer: Its Quality of recovery is “++++ (“++++” means 5-10 min)”.

Question: What about the ED50 (KM mice) of the same molecule?
Answer: The ED50 was 31.6 mg/kg.

Question: What about the ED50 (SD rats) of the same molecule?
Answer: Its ED50 is 5.6 mg/kg.

Question: What about the “2ED50 duration” value (SD rats) of the same molecule?
Answer: Its value is 4.12 min.

Question: What about the 2ED50 recovery time (SD rats) of the same molecule?
Answer: The 2ED50 recovery time was 2.57 min.

Question: What about the Quality of recovery (SD rats) of the same molecule?
Answer: Its Quality of recovery is “+++ (“+++” means 3-5 min)”.

Question: Which 2ED50 duration (KM mice) does the source give for Cc1cnc2n1-c1cc(Br)c(Br)cc1C(c1ccccn1)=N[C@H]2CCC(=O)OCOC(=O)OC(C)C [Example 10] here?
Answer: Its 2ED50 duration is 5.12 min.

Question: What about the 2ED50 recovery time (KM mice) of the same molecule?
Answer: The 2ED50 recovery time was 2.06 min.

Question: And the Quality of recovery (KM mice)?
Answer: Its Quality of recovery is “+++ (“+++” means 3-5 min)”.

Question: And the ED50 (KM mice)?
Answer: Its ED50 is 28.3 mg/kg.

Question: What about the ED50 (SD rats) of the same molecule?
Answer: Its ED50 is 5.8 mg/kg.

Question: What about the “2ED50 duration” value (SD rats) of the same molecule?
Answer: Its value is 5.31 min.

Question: And the 2ED50 recovery time (SD rats)?
Answer: Its 2ED50 recovery time is 2.06 min.

Question: And the Quality of recovery (SD rats)?
Answer: The Quality of recovery was “++ (“++” means 1-3 min)”.

Question: What does the source list for Cc1cnc2n1-c1cc(Br)c(Br)cc1C(c1ccccn1)=N[C@H]2CCC(=O)OCOC(=O)OC(C)(C)C [Example 11]?
Answer: 2ED50 duration (KM mice): 5.31 min; 2ED50 recovery time (KM mice): 2.13 min; Quality of recovery (KM mice): ++ (“++” means 1-3 min); ED50 (KM mice): 22.4 mg/kg; ED50 (SD rats): 5.9 mg/kg; 2ED50 duration (SD rats): 5.03 min; 2ED50 recovery time (SD rats): 2.43 min; Quality of recovery (SD rats): +++ (“+++” means 3-5 min)

Question: With CCC(CC)OC(=O)OCOC(=O)CC[C@@H]1N=C(c2ccccn2)c2cc(Br)c(Br)cc2-n2c(C)cnc21 [Example 12] as the molecule, how does the 2ED50 duration (KM mice) read?
Answer: Its 2ED50 duration is 5.32 min.

Question: What about the 2ED50 recovery time (KM mice) of the same molecule?
Answer: The 2ED50 recovery time was 2.04 min.

Question: What about the Quality of recovery (KM mice) of the same molecule?
Answer: The Quality of recovery was “+++ (“+++” means 3-5 min)”.

Question: And the ED50 (KM mice)?
Answer: The ED50 was 31.3 mg/kg.

Question: What about the ED50 (SD rats) of the same molecule?
Answer: The ED50 was 5.7 mg/kg.

Question: What about the “2ED50 duration” value (SD rats) of the same molecule?
Answer: The value was 5.24 min.

Question: And the 2ED50 recovery time (SD rats)?
Answer: The 2ED50 recovery time was 2.04 min.

Question: What about the Quality of recovery (SD rats) of the same molecule?
Answer: Its Quality of recovery is “++ (“++” means 1-3 min)”.

Question: Cc1cnc2n1-c1cc(Br)c(Br)cc1C(c1ccccn1)=N[C@H]2CCC(=O)OCOC(=O)OC(C)C(C)C (stereo partly shown) [Example 13] was tested. Which 2ED50 duration (KM mice) did it give?
Answer: Its 2ED50 duration is 5.22 min.

Question: And the 2ED50 recovery time (KM mice)?
Answer: Its 2ED50 recovery time is 2.34 min.

Question: What about the Quality of recovery (KM mice) of the same molecule?
Answer: The Quality of recovery was “+++ (“+++” means 3-5 min)”.

Question: And the ED50 (KM mice)?
Answer: Its ED50 is 27 mg/kg.

Question: What about the ED50 (SD rats) of the same molecule?
Answer: Its ED50 is 5.3 mg/kg.

Question: And the “2ED50 duration” value (SD rats)?
Answer: The value was 4.02 min.

Question: What about the 2ED50 recovery time (SD rats) of the same molecule?
Answer: Its 2ED50 recovery time is 2.45 min.

Question: What about the Quality of recovery (SD rats) of the same molecule?
Answer: The Quality of recovery was “+++ (“+++” means 3-5 min)”.

Question: What does the source list for Cc1cnc2n1-c1cc(Br)c(Br)cc1C(c1ccccn1)=N[C@H]2CCC(=O)OCOC(=O)OC(C(C)C)C(C)C [Example 14]?
Answer: 2ED50 duration (KM mice): 6.42 min; 2ED50 recovery time (KM mice): 2.29 min; Quality of recovery (KM mice): +++ (“+++” means 3-5 min); ED50 (KM mice): 32 mg/kg; ED50 (SD rats): 6.9 mg/kg; 2ED50 duration (SD rats): 5.06 min; 2ED50 recovery time (SD rats): 2.39 min; Quality of recovery (SD rats): ++ (“++” means 1-3 min)

Question: How did the 2ED50 duration (KM mice) turn out when COC(=O)OC(C)OC(=O)CC[C@@H]1N=C(c2ccccn2)c2cc(Br)c(Br)cc2-n2c(C)cnc21 (stereo partly shown) [Example 15] was run?
Answer: Its 2ED50 duration is 1.43 min.

Question: And the 2ED50 recovery time (KM mice)?
Answer: Its 2ED50 recovery time is 1.01 min.

Question: What about the ED50 (KM mice) of the same molecule?
Answer: The ED50 was 18.3 mg/kg.

Question: And the “duration and recovery time compared with remimazolam” value (KM mice; mice, tail vein, in words)?
Answer: The value was “significantly shorter”.

Question: What about the “effective dose compared with remimazolam” value (KM mice; mice, tail vein, in words) of the same molecule?
Answer: Its value is “significantly lower”.

Question: What about the ED50 (SD rats) of the same molecule?
Answer: The ED50 was 1.5 mg/kg.

Question: And the “2ED50 duration” value (SD rats)?
Answer: The value was 1.29 min.

Question: And the 2ED50 recovery time (SD rats)?
Answer: The 2ED50 recovery time was 1.01 min.

Question: What about the Quality of recovery (SD rats) of the same molecule?
Answer: The Quality of recovery was “+ (“+” means <1 min)”.

Question: What about the “duration and recovery time compared with remimazolam” value (SD rats; rats, tail vein, in words) of the same molecule?
Answer: The value was “significantly shorter”.

Question: And the “effective dose compared with remimazolam” value (SD rats; rats, tail vein, in words)?
Answer: The value was “significantly lower”.
